# Key:
# [1] = molecular target: T1, reverse transcriptase of HIV (HTLV-III/LAV) (Human immunodeficiency virus type 1 group M subtype B, UniProt P03366); test: Cell-free assay of HIV reverse transcriptase; type: biochemical
# T1 construct: reverse transcriptase from HIV (HTLV-III/LAV)
# Procedure: A cell-free assay system has been used to investigate the inhibition of 3′-deoxy-3′-fluorothymidine on reverse transcriptase of HIV (HTLV-III/LAV). The assay was performed as described by Vrang et Öberg, Antimicrob. Agents Chemother. 29, 867-872 (1986). With this assay the 3′-deoxy-3′-fluoro-thymidine-5′-triphosphate has been tested, instead of the prodrug 3′-deoxy-3′-fluorothymidine to evaluate its potential against reverse transcriptase from HIV (HTLV-III/LAV).
# [2] = molecular target: DNA polymerase of hepatitis B virus (HBV) (Hepatitis B virus genotype D subtype ayw, UniProt P03156); test: biochemical; conditions: 3 hours incubation at 37° C., cpm vs water control
# Description: Since hepatitis B virus cannot be grown in cell cultures, a cell-free assay system of the hepatitis B virus DNA polymerase has been used to investigate the effect of 3′-deoxy-3′-fluorothymidine. 3′-Deoxy-3′-fluorothymidine in cells is transformed to 3′-deoxy-3′-fluorothymidine-5′-triphosphate.
# The HBV associated DNA polymerase activity can be measured in vitro (Kaplan et al., J. Virol., 12, 995-1005, 1973). A slight modification of this method has been used to test the substance for inhibition of this DNA polymerase activity. (Nordenfelt E., Öberg, B., Helgstrand E. and Miller E. Acta path., Microbiol. Scand. Sect B, 88:169-175, 1980). With this assay the 3′-deoxy-3′-fluorothymidine-5′-triphosphate has been tested, instead of the prodrug 3′-deoxy-3′-fluorothymidine, to evaluate its potential against hepatitis B virus DNA polymerase.
# 3′-deoxy-3′-fluorothymidine-5′-triphosphate was added to the final concentrations of 0.01 μM, 0.05 μM, 0.1 μM, 0.5 μM and 1.0 μM in the reaction mixture. The inhibition is calculated after 3 hours incubation at 37° C. and based on cpm compared to control with added water.
# [3] = system: HIV (HTLV-III/LAV) in H9 cells; test: Expressed reverse transcriptase activity in HIV-infected H9 cell cultures; type: cell-based
# Procedure: The cells were then pelleted and dispersed in 2.5 ml phosphate buffered saline (PBS) including 2 μg/ml Polybrene. After incubation for 30 min the cells were pelleted and infected with HIV. After an adsorption period of 1 hour the cells were pelleted and washed once with 2.5 ml PBS. […] Samples for reverse transcriptase activity tests were taken as indicated.
# 1.3 ml samples from the supernatant of each culture were centrifuged at 18 000 rpm in a 55-34 rotor for 1.5 hours and the virus pellet resuspended in 100 μl buffer containing 50 mM Tris-HCl, pH 7.5; 35 mM KCl; 4 mM DTT; 1 mM EDTA; 1.3% Triton X-100. 50 μl samples were taken to the reverse transcriptase activity tests and analyzed in a 100 μl reaction mixture containing 75 mM Tris-HCl, pH 8.0; 60 mM KCl; 6.2 mM MgCl2; 6 mM DTT; 0.5 mM EDTA; 0.65% Triton X-100, 100 μg/ml BSA; 25 μCi/ml ^3H-dTTP (spec activity 80 Ci/mmol); 2.5 μg/ml (dT)12-18; and 2.0 μg/ml (rA)n. Incubation was for 1 hour at 37° C. and the TCA-insoluble product precipitated onto Whatman GF/A filter papers, washed and dried, and counted in a liquid scintillation counter.
# The amounts of reverse transcriptase molecules and their total activity expressed in HIV-infected cell cultures is correlated to the amount of HIV particles present. The addition of an effective antiviral agent which inhibits the production of new HIV particles, also decreases the amount of reverse transcriptase molecules and is expressed as a decreased total activity.
# DNA polymerase of hepatitis B virus (HBV), sequence (P03156 whole entry): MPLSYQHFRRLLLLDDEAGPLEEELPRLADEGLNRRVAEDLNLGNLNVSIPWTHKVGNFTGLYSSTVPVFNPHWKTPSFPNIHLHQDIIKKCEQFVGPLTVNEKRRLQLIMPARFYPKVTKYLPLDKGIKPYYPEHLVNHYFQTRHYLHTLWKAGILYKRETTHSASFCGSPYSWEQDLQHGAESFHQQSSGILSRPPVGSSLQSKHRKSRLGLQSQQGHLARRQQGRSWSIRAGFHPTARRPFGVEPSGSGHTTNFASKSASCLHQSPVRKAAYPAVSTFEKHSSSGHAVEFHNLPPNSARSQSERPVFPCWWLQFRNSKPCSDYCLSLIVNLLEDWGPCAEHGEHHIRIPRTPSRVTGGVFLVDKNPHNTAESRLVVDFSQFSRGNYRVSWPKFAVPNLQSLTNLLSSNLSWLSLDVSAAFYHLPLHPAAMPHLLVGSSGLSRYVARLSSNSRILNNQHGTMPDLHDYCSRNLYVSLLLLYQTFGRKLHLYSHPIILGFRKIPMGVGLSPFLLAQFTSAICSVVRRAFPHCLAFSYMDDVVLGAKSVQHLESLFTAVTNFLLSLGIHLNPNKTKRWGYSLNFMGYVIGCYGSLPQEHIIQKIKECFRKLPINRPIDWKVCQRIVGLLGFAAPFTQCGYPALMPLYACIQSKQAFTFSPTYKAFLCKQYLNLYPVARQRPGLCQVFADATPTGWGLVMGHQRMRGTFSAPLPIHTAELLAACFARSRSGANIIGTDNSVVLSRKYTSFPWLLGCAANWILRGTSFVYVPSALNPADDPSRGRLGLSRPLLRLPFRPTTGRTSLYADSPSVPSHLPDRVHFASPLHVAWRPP
smiles,measurement,setting,value
Cc1cn([C@H]2C[C@H](F)[C@@H](COP(=O)(O)OP(=O)(O)OP(=O)(O)O)O2)c(=O)[nH]c1=O [3′-deoxy-3′-fluorothymidine-5′-triphosphate],% inhibition of HIV (HTLV-III/LAV) reverse transcriptase,[1]; 0.01 μM,12%
same,% inhibition of HIV (HTLV-III/LAV) reverse transcriptase,[1]; 0.05 μM,27%
same,% inhibition of HIV (HTLV-III/LAV) reverse transcriptase,[1]; 0.1 μM,38%
same,inhibition at 0.01 µM,[2]; 0.01 μM,17%
same,inhibition at 0.05 µM,[2]; 0.05 μM,17%
same,inhibition at 0.1 µM,[2]; 0.1 μM,39%
same,inhibition at 0.5 µM,[2]; 0.5 μM,79%
Cc1cn([C@H]2C[C@H](F)[C@@H](CO)O2)c(=O)[nH]c1=O [3′-deoxy-3′-fluorothymidine],Reverse transcriptase activity,"[3]; 0.01 μM, 4 days post-infection, 0 μM control 0.9",0.5 cpm × 10^−3
same,Reverse transcriptase activity,"[3]; 0.01 μM, 8 days post-infection, 0 μM control 19",1.3 cpm × 10^−3
same,Reverse transcriptase activity,"[3]; 0.01 μM, 11 days post-infection, 0 μM control 17",1.9 cpm × 10^−3
same,Reverse transcriptase activity,"[3]; 0.01 μM, 15 days post-infection, 0 μM control 11",2.7 cpm × 10^−3
same,Reverse transcriptase activity,"[3]; 0.01 μM, 18 days post-infection, 0 μM control 27",28 cpm × 10^−3
same,Reverse transcriptase activity,"[3]; 0.01 μM, 22 days post-infection, 0 μM control 46",52 cpm × 10^−3
same,Reverse transcriptase activity,"[3]; 0.01 μM, 29 days post-infection, 0 μM control 16",21 cpm × 10^−3
same,effect on reverse transcriptase activity of HIV in infected H9 cells (in words),"[3]; 0.01 μM, up to 11 days",enzyme activity was not detected
same,Reverse transcriptase activity,"[3]; 0.05 μM, 4 days post-infection, 0 μM control 0.9",0.3 cpm × 10^−3
same,Reverse transcriptase activity,"[3]; 0.05 μM, 8 days post-infection, 0 μM control 19",0.3 cpm × 10^−3
same,Reverse transcriptase activity,"[3]; 0.05 μM, 11 days post-infection, 0 μM control 17",0.4 cpm × 10^−3
same,Reverse transcriptase activity,"[3]; 0.05 μM, 15 days post-infection, 0 μM control 11",0.6 cpm × 10^−3
same,Reverse transcriptase activity,"[3]; 0.05 μM, 18 days post-infection, 0 μM control 27",0.5 cpm × 10^−3
same,Reverse transcriptase activity,"[3]; 0.05 μM, 22 days post-infection, 0 μM control 46",1.6 cpm × 10^−3
same,Reverse transcriptase activity,"[3]; 0.05 μM, 29 days post-infection, 0 μM control 16",3.1 cpm × 10^−3
same,effect on reverse transcriptase activity of HIV in infected H9 cells (in words),"[3]; 0.05 μM, up to 22 days",no significant enzyme activity was detected
same,effect on reverse transcriptase activity of HIV in infected H9 cells (in words),"[3]; 0.1 μM and higher concentrations, during at least 29 days",completely prevents the enzyme activity
same,Reverse transcriptase activity,"[3]; 0.1 μM, 4 days post-infection, 0 μM control 0.9",0.2 cpm × 10^−3
same,Reverse transcriptase activity,"[3]; 0.1 μM, 8 days post-infection, 0 μM control 19",0.2 cpm × 10^−3
same,Reverse transcriptase activity,"[3]; 0.1 μM, 11 days post-infection, 0 μM control 17",0.5 cpm × 10^−3
same,Reverse transcriptase activity,"[3]; 0.1 μM, 15 days post-infection, 0 μM control 11",0.4 cpm × 10^−3
same,Reverse transcriptase activity,"[3]; 0.1 μM, 18 days post-infection, 0 μM control 27",0.4 cpm × 10^−3
same,Reverse transcriptase activity,"[3]; 0.1 μM, 22 days post-infection, 0 μM control 46",0.2 cpm × 10^−3
same,Reverse transcriptase activity,"[3]; 0.1 μM, 29 days post-infection, 0 μM control 16",0.2 cpm × 10^−3
same,Reverse transcriptase activity,"[3]; 0.5 μM, 4 days post-infection, 0 μM control 0.9",0.3 cpm × 10^−3
same,Reverse transcriptase activity,"[3]; 0.5 μM, 8 days post-infection, 0 μM control 19",0.3 cpm × 10^−3
same,Reverse transcriptase activity,"[3]; 0.5 μM, 11 days post-infection, 0 μM control 17",0.5 cpm × 10^−3
same,Reverse transcriptase activity,"[3]; 0.5 μM, 15 days post-infection, 0 μM control 11",0.3 cpm × 10^−3
same,Reverse transcriptase activity,"[3]; 0.5 μM, 18 days post-infection, 0 μM control 27",0.6 cpm × 10^−3
same,Reverse transcriptase activity,"[3]; 0.5 μM, 22 days post-infection, 0 μM control 46",0.1 cpm × 10^−3
same,Reverse transcriptase activity,"[3]; 0.5 μM, 29 days post-infection, 0 μM control 16",0.2 cpm × 10^−3
same,Reverse transcriptase activity,"[3]; 1.0 μM, 4 days post-infection, 0 μM control 0.9",0.3 cpm × 10^−3
same,Reverse transcriptase activity,"[3]; 1.0 μM, 8 days post-infection, 0 μM control 19",0.2 cpm × 10^−3
same,Reverse transcriptase activity,"[3]; 1.0 μM, 11 days post-infection, 0 μM control 17",0.5 cpm × 10^−3
same,Reverse transcriptase activity,"[3]; 1.0 μM, 15 days post-infection, 0 μM control 11",0.4 cpm × 10^−3
same,Reverse transcriptase activity,"[3]; 1.0 μM, 18 days post-infection, 0 μM control 27",0.5 cpm × 10^−3
same,Reverse transcriptase activity,"[3]; 1.0 μM, 22 days post-infection, 0 μM control 46",0.1 cpm × 10^−3
same,Reverse transcriptase activity,"[3]; 1.0 μM, 29 days post-infection, 0 μM control 16",0.2 cpm × 10^−3

# — patent US6358934B1, “Anti-retroviral activity of 2′,3′-dideoxy-3′-fluoronucleosides” (Medivir AB, priority 1986, dated 2002)
